What was measured:
[1] = relative fluorescence of dyes coupled directly to oligos, double-stranded DNA bound to beads, flow cytometer; format: physicochemical; details: FIG. 26
Method: Fluorescence was measured with double-stranded DNA bound to beads using a flow cytometer. […] Accordingly, green dyes may have an inherent advantage over red dyes. This difference may owe at least in part to Atto633 being hydrophobic while Atto532 is comparatively hydrophilic.

[2] = enzyme-independent bead assay for evaluating quenching with linker arm oligonucleotides; format: physicochemical; details: APC (red) channel, FIG. 14
Description: The dye-labeled nucleotides provided herein may improve quenching between nucleobases and the dyes to which they are attached and/or between dyes in a nucleic acid molecule (e.g., a growing nucleic acid strand), such as in a homopolymeric region of a nucleic acid molecule. Quenching may be evaluated in an enzyme-independent manner.
Synthetic oligos are constructed with one or two “linker arm nucleotides”. Linker arm nucleotides are thymidine analogs with a linker arm containing a primary amine. The oligonucleotide containing the linker arm nucleotide can be labeled with linkers and dyes and HPLC purified. The advantage of using the bead-labeled assay is that exact quantitation of the reagents is not necessary; a large excess can be used in each step and the beads washed, ensuring that only stoichiometric amounts of oligonucleotides are bound to the template. Each dye-linker is put on both oligonucleotides. The beads are measured on the flow cytometer in the APC (red) channel. The percent quenching is determined by the formula: % quenching=100×(1−Flbis/(2*Flmono)).
FIGS. 14 and 15 show quenching results for red dye linkers (FIG. 14) and green dye linkers (FIG. 15). […] The hyp10 or hyp20 linkers improve quenching.

Row | brightness of two dyes relative to a single dye coupled to an oligo [1] [×] | quenching, red dye linkers [2] | Compound
1 | 0.4 | hyp10 improves quenching | CC[N+]1=c2cc3c(cc2CCC1)=C(c1ccccc1C(=O)N(C)CCCC(=O)O)c1ccc(N(C)C)cc1C3(C)C [Atto633]
2 |  | quenching may not be improved | CCN1/C(=C/C=C/C=C/C2=[N+](CCCCCC(=O)O)c3ccc(S(=O)(=O)O)cc3C2(C)C)C(C)(C)c2cc(S(=O)(=O)[O-])ccc21 [Cy5]

Source: patent publication US20230272221A1, “REAGENTS FOR LABELING BIOMOLECULES” (Ultima Genomics, Inc., priority 2020, published 2023)
